{"source": "paper PMC5618421", "about": "“Anti-Inflammatory Effects of Curvularin-Type Metabolites from a Marine-Derived Fungal Strain Penicillium sp. SF-5859 in Lipopolysaccharide-Induced RAW264.7 Macrophages” (Marine Drugs, 2017)", "key": {"[1]": {"test_system": "NO production in LPS-treated RAW 264.7 macrophages", "test": "Inhibition of NO production (nitrite, Griess reaction) in LPS-treated RAW264.7 macrophages", "format": "cell-based", "details": "for inhibitory activity on LPS-induced production of NO and PGE2 (in words): LPS-stimulated RAW264.7 macrophages; for IC50: Mus musculus, RAW264.7 macrophages pre-treated 3 h with compound, then LPS (1 μg/mL) 24 h, Griess reaction", "experimental": "(§1) All isolated compounds (1–9) were evaluated for their anti-inflammatory effects. […] NO is a small molecule which is an intracellular mediator produced in various immune cells. It plays a pivotal role in the physiological and pathological condition of inflammatory symptoms. PGE2 can also regulate the immune and inflammatory responses. In this study, RAW264.7 macrophages were pre-treated for 3 h in the medium containing non-toxic concentrations (Table 2) of each compound (1–9), and then LPS (1 μg/mL) was treated for 24 h. According to the LPS stimulation of RAW264.7 macrophages, production of NO and PGE2 was increased, and the effects of all compounds on the production level of NO and PGE2 were evaluated by the Griess reaction and a PGE2 kit, respectively. […] To evaluate the impact of phenol and resorcinol groups in the curvularin-type metabolites for the anti-inflammatory activity, 5-O-methyl and 5,7,-di-O-methyl derivatives of curvularin (3a and 3b, respectively), as well as 5-O-acetyl and 5,7,-di-O-acetyl derivatives of curvularin (3c and 3d, respectively), were prepared, and the structures of 3a–3d were identified by comparison the ^1H and ^13C-NMR spectroscopic data with those of curvularin (3), and confirmed by their HRESIMS. […] The position of the methoxy group in 3a was confirmed by HMBC correlation between methoxy signal at δH 3.77 (3H, s, 5-OCH3) and δC 161.8 (C-5). The NOESY cross-peaks between acetyl proton ([…]) with H-2, H-4, and H-16 of 3c were used to identify the position of the acetyl group in 3c. […] Further systematic investigations are needed to clarify the structure activity relationship associated with the modification of the aliphatic part of the molecule.\nAs an indicator of NO production in RAW264.7 macrophages, production of nitrite, a stable end-product of NO oxidation, was estimated. Briefly, the concentration of nitrite in the conditioned media was determined by a method based on the Griess reaction, and the details of the assay were described previously."}, "RAW264.7 macrophages": {"test_system": "RAW264.7 macrophages", "test": "Cell viability (MTT) cytotoxic assay", "format": "cell-based", "experimental": "RAW264.7 macrophages were maintained at a density of 5 × 10^5 cells/mL in RPMI1640 medium supplemented with 10% heat-inactivated FBS, penicillin G (100 units/mL), streptomycin ([…]), and L-glutamine (2 mM), and were incubated at 37 °C in a humidified atmosphere containing 5% CO2. For determination of cell viability, cells (1 × 10^5 cells/well in 96-well plates) were incubated with 3-(4,5-dimethylthiazol-2-yl)-2,5-diphenyltetrazolium bromide (MTT) at a final concentration of 0.5 mg/mL for 3 h, and the formazan formed was dissolved in acidic 2-propanol. The optical density was measured at 540 nm with a microplate reader (BioRad, Hercules, CA, USA). The optical density of the formazan formed in control (untreated) cells was considered to represent 100% viability."}, "[2]": {"test_system": "PGE2 production in LPS-treated RAW 264.7 macrophages", "test": "Inhibition of PGE2 production (PGE2 ELISA kit) in LPS-treated RAW264.7 macrophages", "format": "cell-based", "details": "Mus musculus, RAW264.7 macrophages pre-treated 3 h with compound, then LPS (1 μg/mL) 24 h", "experimental": "as §1\nRPMI1640, fetal bovine serum (FBS), and other tissue culture reagents were purchased from Gibco BRL Co. (Grand Island, NY, USA). All other chemicals were obtained from Sigma-Aldrich Co. (St. Louis, MO, USA). Primary antibodies (COX-2: sc-1745; iNOS: sc-650; IκB-α: sc-371; p-IκB-α: sc-8404; p50: sc-7178; p65: sc-8008, Santa Cruz Biotechnology, Dallas, TX, USA, p-ERK: #9101; ERK: #9102; p-JNK: #9251; JNK: #9252S; p-p38: #9211; p38: 9212S, Cell Signaling Technology, Danvers, MA, USA) and secondary antibodies (mouse: ap124p; goat: ap106p; rabbit: ap132p, Millipore, Billerica MA, USA). Enzyme-linked immunosorbent assay (ELISA) kits for PGE2 were purchased from R and D Systems, Inc. (Minneapolis, MN, USA)."}, "iNOS and COX-2": {"test_system": "iNOS and COX-2", "parameters": "method as in PMID 18366037, PMID 12527810", "details": "human alveolar epithelial A549/8 cells; through blocking activation of STAT-1α; cited from earlier work"}, "[3]": {"test_system": "pro-inflammatory cytokines and chemokines", "parameters": "method as in PMID 22767531", "details": "mice model of chronic induced arthritis; cited from earlier work"}, "human iNOS promotor": {"test_system": "human iNOS promotor", "parameters": "method as in PMID 18366037", "details": "human alveolar epithelial A549/8 cells; compared with (S)-curvularin (3); cited from earlier work"}, "E. coli": {"test_system": "E. coli", "parameters": "method as in PMID 26119337", "details": "growth of E. coli; cited from earlier work"}}, "data": [{"smiles": "C[C@H]1CCC[C@@H](CC(=O)c2c(O)cc(O)cc2CC(=O)O)O1", "note": "[Compound 1, curvulone C]", "values": [{"measurement": "inhibitory activity on LPS-induced production of NO and PGE2 (in words)", "setting": "[1]", "value": "appeared to lose the inhibitory activity"}, {"measurement": "IC50", "setting": "[1]", "value": "> 80", "unit": "µM"}, {"measurement": "Cytotoxicity (the maximum concentration not affecting cell viability)", "setting": "RAW264.7 macrophages; RAW264.7 macrophages, MTT", "value": ">80", "unit": "µM"}, {"measurement": "IC50", "setting": "[2]", "value": "> 80", "unit": "µM"}]}, {"smiles": "COC(=O)Cc1cc(O)cc(O)c1C(=O)C[C@H]1CCC[C@@H](C)O1", "note": "[Compound 2, curvulone B]", "values": [{"measurement": "inhibitory activity on LPS-induced production of NO and PGE2 (in words)", "setting": "[1]", "value": "appeared to lose the inhibitory activity"}, {"measurement": "IC50", "setting": "[1]", "value": "> 80", "unit": "µM"}, {"measurement": "Cytotoxicity (the maximum concentration not affecting cell viability)", "setting": "RAW264.7 macrophages; RAW264.7 macrophages, MTT", "value": ">80", "unit": "µM"}, {"measurement": "IC50", "setting": "[2]", "value": "> 80", "unit": "µM"}]}, {"smiles": "CC1CCCCCC(=O)c2c(O)cc(O)cc2CC(=O)O1", "note": "(centres unmarked) [Compound 3, curvularin]", "values": [{"measurement": "inducible transcription and synthesis of iNOS and COX-2", "setting": "iNOS and COX-2", "value": "inhibited inducible transcription and synthesis of iNOS and COX-2"}, {"measurement": "Cytotoxicity (the maximum concentration not affecting cell viability)", "setting": "RAW264.7 macrophages; mouse", "value": 40, "unit": "µM"}, {"measurement": "expression of pro-inflammatory cytokines and chemokines", "setting": "[3]", "value": "suppressive effect"}]}, {"smiles": "COc1cc(O)c2c(c1)CC(=O)O[C@@H](C)CCCCCC2=O", "note": "[Compound 3a, 5-O-methylcurvularin]", "values": [{"measurement": "Cytotoxicity (the maximum concentration not affecting cell viability)", "setting": "RAW264.7 macrophages; RAW264.7 macrophages, MTT", "value": ">80", "unit": "µM"}]}, {"smiles": "COc1cc2c(c(OC)c1)C(=O)CCCCC[C@H](C)OC(=O)C2", "note": "[Compound 3b, 5,7-Di-O-methylcurvularin]", "values": [{"measurement": "IC50", "setting": "[1]", "value": "60.6 ± 16.4", "unit": "µM"}, {"measurement": "Cytotoxicity (the maximum concentration not affecting cell viability)", "setting": "RAW264.7 macrophages; RAW264.7 macrophages, MTT", "value": ">80", "unit": "µM"}, {"measurement": "IC50", "setting": "[2]", "value": "49.4 ± 14", "unit": "µM"}]}, {"smiles": "CC(=O)Oc1cc(O)c2c(c1)CC(=O)O[C@@H](C)CCCCCC2=O", "note": "[Compound 3c, 5-O-acetylcurvularin]", "values": [{"measurement": "IC50", "setting": "[1]", "value": "46.9 ± 3.7", "unit": "µM"}, {"measurement": "Cytotoxicity (the maximum concentration not affecting cell viability)", "setting": "RAW264.7 macrophages; RAW264.7 macrophages, MTT", "value": ">80", "unit": "µM"}, {"measurement": "IC50", "setting": "[2]", "value": "73.7 ± 17.1", "unit": "µM"}]}, {"smiles": "CC(=O)Oc1cc2c(c(OC(C)=O)c1)C(=O)CCCCC[C@H](C)OC(=O)C2", "note": "[Compound 3d, 5,7-Di-O-acetylcurvularin]", "values": [{"measurement": "IC50", "setting": "[1]", "value": "77.5 ± 9.3", "unit": "µM"}, {"measurement": "Cytotoxicity (the maximum concentration not affecting cell viability)", "setting": "RAW264.7 macrophages; RAW264.7 macrophages, MTT", "value": ">80", "unit": "µM"}, {"measurement": "IC50", "setting": "[2]", "value": "> 80", "unit": "µM"}, {"measurement": "inhibitory effect on the cytokine-mediated induction of the iNOS promotor", "setting": "human iNOS promotor", "value": "higher inhibitory effect"}]}, {"smiles": "C[C@H]1CCC[C@@H](O)CC(=O)c2c(O)cc(O)cc2CC(=O)O1", "note": "[Compound 4, (11R,15S)-11-hydroxycurvularin]", "values": [{"measurement": "IC50", "setting": "[1]", "value": "11.5 ± 2.7", "unit": "µM"}, {"measurement": "Cytotoxicity (the maximum concentration not affecting cell viability)", "setting": "RAW264.7 macrophages; RAW264.7 macrophages, MTT", "value": 40, "unit": "µM"}, {"measurement": "IC50", "setting": "[2]", "value": "15.6 ± 5.2", "unit": "µM"}, {"measurement": "antibacterial activity", "setting": "E. coli", "value": "inhibiting the growth of E. coli"}]}, {"smiles": "C[C@H]1CCC[C@H](O)CC(=O)c2c(O)cc(O)cc2CC(=O)O1", "note": "[Compound 5, (11S,15S)-11-hydroxycurvularin]", "values": [{"measurement": "IC50", "setting": "[1]", "value": "7.2 ± 1.6", "unit": "µM"}, {"measurement": "Cytotoxicity (the maximum concentration not affecting cell viability)", "setting": "RAW264.7 macrophages; RAW264.7 macrophages, MTT", "value": 40, "unit": "µM"}, {"measurement": "IC50", "setting": "[2]", "value": "14.1 ± 4", "unit": "µM"}, {"measurement": "antibacterial activity", "setting": "E. coli", "value": "inhibiting the growth of E. coli"}]}, {"smiles": "CO[C@@H]1CCC[C@H](C)OC(=O)Cc2cc(O)cc(O)c2C(=O)C1", "note": "[Compound 6, (11R,15S)-11-methoxycurvularin]", "values": [{"measurement": "Cytotoxicity (the maximum concentration not affecting cell viability)", "setting": "RAW264.7 macrophages; RAW264.7 macrophages, MTT", "value": 20, "unit": "µM"}]}, {"smiles": "CO[C@H]1CCC[C@H](C)OC(=O)Cc2cc(O)cc(O)c2C(=O)C1", "note": "[Compound 7, (11S,15S)-11-methoxycurvularin]", "values": [{"measurement": "Cytotoxicity (the maximum concentration not affecting cell viability)", "setting": "RAW264.7 macrophages; RAW264.7 macrophages, MTT", "value": 20, "unit": "µM"}]}, {"smiles": "C[C@H]1CCC/C=C\\C(=O)c2c(O)cc(O)cc2CC(=O)O1", "note": "[Compound 9, (10Z,15S)-10,11-dehydrocurvularin]", "values": [{"measurement": "IC50", "setting": "[1]", "value": "4.4 ± 0.8", "unit": "µM"}, {"measurement": "Cytotoxicity (the maximum concentration not affecting cell viability)", "setting": "RAW264.7 macrophages; RAW264.7 macrophages, MTT", "value": 20, "unit": "µM"}, {"measurement": "IC50", "setting": "[2]", "value": "6.2 ± 1.1", "unit": "µM"}]}]}
